{
  "source": "patent US10640495B2",
  "about": "“Heterocycle derivatives having TrkA inhibitory activity” (Shionogi & Co., Ltd., priority 2015, dated 2020)",
  "key": {"[1]": {"test": "Clearance test, intravenous administration in SD rats (Test Example 7)", "type": "in vivo", "conditions": "rat, plasma, intravenous administration 0.5 mg/kg or 1 μmol/kg, read-out: Total Clearance (CLtot)", "experimental": "Materials and Methods for Experiments • (1) Experimental animals: SD rats were used. • (2) Rearing condition: SD rats were allowed free access to solid feed and sterilized tap water. • (3) Setting of dosage and grouping: Intravenous administration was performed with the predetermined dosage. Grouping was set as below. (Dosage is changed per compound) Intravenous administration 0.5 mg/kg or 1 μmol/kg (n=2) • (4) Preparation of administration solutions: Administration was performed after solubilization by using dimethylacetamide/propylene glycol=1/1 or dimethyl sulfoxide/propylene glycol=1/1 as the solvent. • (5) Routes of administration: Intravenous administration was performed from caudal vein by syringes with needle. • (6) Evaluation items: Blood was collected serially and concentration of a compound of the present invention in plasma was measured by LC/MS/MS. • (7) Statistical analysis: About transition of concentration of a compound of the present invention in plasma, Total Clearance (CLtot) of a compound of the present invention was calculated by non-linear least-squares method program, WinNonlin (a registered trademark)."}, "human TrkA": {"target": "human TrkA (Homo sapiens (Human), UniProt P04629)", "sequence (P04629 440-796)": "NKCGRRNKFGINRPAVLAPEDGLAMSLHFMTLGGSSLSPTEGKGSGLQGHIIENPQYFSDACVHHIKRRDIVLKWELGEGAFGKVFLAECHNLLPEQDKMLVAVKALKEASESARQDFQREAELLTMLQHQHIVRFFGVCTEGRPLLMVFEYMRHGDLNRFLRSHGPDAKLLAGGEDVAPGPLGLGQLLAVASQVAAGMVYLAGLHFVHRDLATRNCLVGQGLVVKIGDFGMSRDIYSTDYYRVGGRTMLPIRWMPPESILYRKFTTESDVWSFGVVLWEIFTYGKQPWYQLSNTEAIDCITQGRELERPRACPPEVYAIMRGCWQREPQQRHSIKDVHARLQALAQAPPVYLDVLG", "test": "Human TrkA inhibition assay (Test Example 2)", "type": "biochemical", "how_it_was_run": "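Mobility-shift readout of phosphorylated versus unphosphorylated fluorescent peptide gave conversion ratio, normalized to DMSO and no-enzyme wells; IC50 by logistic fit of 10- or 15-point 3-fold dilutions. Conditions: 1 nmol/L enzyme, 15 min compound preincubation, then 500 μmol/L ATP plus 1.5 μmol/L peptide, 120 min, 37 °C.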"}, "hERG channel (IKr)": {"target": "hERG channel (IKr) (Homo sapiens (Human), UniProt Q12809)", "sequence (Q12809 whole entry)": "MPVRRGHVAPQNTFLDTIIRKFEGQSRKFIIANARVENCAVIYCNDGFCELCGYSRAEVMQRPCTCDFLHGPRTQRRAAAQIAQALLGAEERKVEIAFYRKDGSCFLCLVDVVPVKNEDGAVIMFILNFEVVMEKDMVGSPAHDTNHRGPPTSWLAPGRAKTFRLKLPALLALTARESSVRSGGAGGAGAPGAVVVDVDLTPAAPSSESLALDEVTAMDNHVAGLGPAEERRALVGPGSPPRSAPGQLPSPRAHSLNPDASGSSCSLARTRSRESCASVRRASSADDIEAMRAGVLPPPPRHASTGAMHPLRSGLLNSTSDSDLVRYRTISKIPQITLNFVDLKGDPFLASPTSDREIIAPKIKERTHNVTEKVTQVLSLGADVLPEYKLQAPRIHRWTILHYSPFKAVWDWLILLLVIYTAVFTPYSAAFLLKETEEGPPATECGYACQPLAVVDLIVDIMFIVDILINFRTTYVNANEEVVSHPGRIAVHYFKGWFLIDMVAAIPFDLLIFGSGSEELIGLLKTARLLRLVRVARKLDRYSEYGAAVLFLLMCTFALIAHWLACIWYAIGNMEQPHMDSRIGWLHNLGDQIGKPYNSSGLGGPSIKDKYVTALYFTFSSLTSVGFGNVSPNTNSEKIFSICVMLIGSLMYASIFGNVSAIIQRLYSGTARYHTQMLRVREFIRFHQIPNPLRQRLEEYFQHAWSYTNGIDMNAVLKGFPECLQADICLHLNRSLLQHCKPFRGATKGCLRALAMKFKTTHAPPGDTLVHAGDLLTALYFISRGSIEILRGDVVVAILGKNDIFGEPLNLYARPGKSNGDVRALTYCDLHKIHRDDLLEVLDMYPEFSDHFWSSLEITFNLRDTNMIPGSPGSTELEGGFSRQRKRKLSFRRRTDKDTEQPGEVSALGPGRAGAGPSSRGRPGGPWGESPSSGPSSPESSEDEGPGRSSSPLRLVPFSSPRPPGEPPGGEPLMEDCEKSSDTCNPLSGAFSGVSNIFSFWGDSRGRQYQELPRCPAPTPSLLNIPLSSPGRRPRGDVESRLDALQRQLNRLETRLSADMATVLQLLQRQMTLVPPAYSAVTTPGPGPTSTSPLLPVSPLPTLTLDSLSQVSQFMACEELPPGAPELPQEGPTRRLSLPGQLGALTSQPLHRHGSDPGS", "test": "hERG test, whole cell patch clamp IKr in CHO cells (Test Example 3)", "type": "cell-based", "conditions": "pH 7.4, at of test compound (so in the source), CHO cells expressing hERG channel, read-out: % inhibition of tail peak current (IKr)", "description": "For the purpose of assessing risk of an electrocardiogram QT interval prolongation of the compound of the present invention, effects of the compound of the present invention on delayed rectifier K^+ current (IKr), which plays an important role in the ventricular repolarization process, was studied using CHO cells expressing human ether-a-go-go related gene (hERG) channel.\nAfter a cell was retained at a membrane potential of −80 mV by whole cell patch clamp method using an automated patch clamp system (QPatch; Sophion Bioscience A/S) and gave a leak potential of −50 mV, IKr induced by depolarization pulse stimulation at +20 mV for 2 seconds, and further, repolarization pulse stimulation at −50 mV for 2 seconds, was recorded. A vehicle, which is the 0.1-0.3% dimethyle sulfoxide solution in extracellular solution (NaCl: 145 mmol/L, KCl: 4 mmol/L, CaCl2: 2 mmol/L, MgCl2: 1 mmol/L, glucose: 10 mmol/L, HEPES (4-(2-hydroxyethyl)-1-piperazineethanesulfonic acid): 10 mmol/L, pH7.4), or the compound of the present invention had been dissolved at an objective concentration in the extracellular solution is applied to the cell at room temperature for 7 minutes or more. From the recording IKr, an absolute value of the tail peak current was measured based on the current value at the resting membrane potential using analysis software (QPatch assay software; Sophion Bioscience A/S). Further, the % inhibition of tail peak current for the compound of the present invention relative to the tail peak current after application of the vehicle is calculated to assess influence of the compound of the present invention on IKr.\n(Result) % inhibition was shown at […] of test compound."}, "[2]": {"conditions": "Table 152, human TrkA inhibition, read-out: IC50_nM"}, "[3]": {"conditions": "human TrkA 1 nmol/L, ATP 500 μmol/L, 120 min at 37° C., read-out: IC50 values (TrkA phosphorylation inhibition)"}, "[4]": {"conditions": "Table 153, human TrkA inhibition, read-out: IC50"}, "[5]": {"conditions": "Table 154, human TrkA inhibition, read-out: IC50"}, "[6]": {"conditions": "Table 155, human TrkA inhibition, read-out: IC50"}},
  "note": "Like-named read-outs stand apart in the source and are kept apart here.",
  "data": [
    {"smiles": "CCN1CCC(NC(=O)c2ccc(-c3nn(-c4ccccc4)c(NC(=O)N[C@@H]4CC(CCOC)O[C@H]4c4ccccc4)c3C)cc2)CC1", "note": "(stereo partly drawn) [Compound I-19]", "values": [
      {"measurement": "clearance", "setting": "[1]", "result": 15.6, "unit": "mL/min/kg"},
      {"measurement": "IC50", "setting": "human TrkA; [2]", "result": "< 100", "unit": "nM"}
    ]},
    {"smiles": "COCCC1C[C@@H](NC(=O)Nc2c(C)c(-c3cnn(C)c3)nn2-c2ccccc2)[C@H](c2ccccc2)O1", "note": "(stereo partly drawn) [Compound I-6]", "values": [
      {"measurement": "inhibition at 5 mol/L", "setting": "hERG channel (IKr)", "result": 8.9, "unit": "%"},
      {"measurement": "IC50", "setting": "human TrkA; [2]", "result": "< 100", "unit": "nM"}
    ]},
    {"smiles": "COCCN1C[C@@H](NC(=O)Nc2c(C)c(-c3cnn(C)c3)nn2-c2ccccc2)[C@H](c2ccccc2)O1", "note": "(racemic) [Compound I-4]", "values": [
      {"measurement": "inhibition at 5 mol/L", "setting": "hERG channel (IKr)", "result": 14.1, "unit": "%"},
      {"measurement": "IC50", "setting": "human TrkA; [2]", "result": "< 100", "unit": "nM"}
    ]},
    {"smiles": "COCCC1C[C@@H](NC(=O)Nc2c(C)c(-c3cnc(C)nc3)nn2-c2ccccc2)[C@H](c2ccccc2)O1", "note": "(stereo partly drawn) [Compound I-12]", "values": [
      {"measurement": "inhibition at 5 mol/L", "setting": "hERG channel (IKr)", "result": 17.6, "unit": "%"},
      {"measurement": "clearance", "setting": "[1]", "result": 13.6, "unit": "mL/min/kg"},
      {"measurement": "IC50", "setting": "human TrkA; [2]", "result": "< 100", "unit": "nM"}
    ]},
    {"smiles": "COCCN1C[C@@H](NC(=O)Nc2c(C)c(-c3cnc(OC)nc3)nn2-c2ccccc2)[C@H](c2cnc(F)c(F)c2)O1", "note": "(racemic) [Compound I-57]", "values": [
      {"measurement": "clearance", "setting": "[1]", "result": 7.93, "unit": "mL/min/kg"},
      {"measurement": "IC50", "setting": "human TrkA; [3]", "result": 2.2, "unit": "nM"}
    ]},
    {"smiles": "COCCN1C[C@@H](NC(=O)Nc2c(C)c(-c3cnc4c(cnn4C)c3)nn2-c2ccccc2)[C@H](c2ccnc(F)c2)O1", "note": "(racemic) [Compound I-40]", "values": [
      {"measurement": "clearance", "setting": "[1]", "result": 2.82, "unit": "mL/min/kg"},
      {"measurement": "IC50", "setting": "human TrkA; [3]", "result": 1.6, "unit": "nM"}
    ]},
    {"smiles": "COCC[C@@H]1O[C@@H](NC(=O)Nc2c(C)c(-c3cnn(C)c3)nn2-c2ccccc2)[C@H](c2ccccc2)O1", "note": "[Compound I-7]", "values": [
      {"measurement": "inhibition at 5 mol/L", "setting": "hERG channel (IKr)", "result": 4.2, "unit": "%"},
      {"measurement": "IC50", "setting": "human TrkA; [3]", "result": 6.1, "unit": "nM"}
    ]},
    {"smiles": "COCCN1C[C@@H](NC(=O)Nc2c(C)c(-c3cnc4c(c3)nnn4C)nn2-c2ccccc2)[C@H](c2ccnc(F)c2)O1", "note": "(racemic) [Compound I-90]", "values": [
      {"measurement": "clearance", "setting": "[1]", "result": 6.35, "unit": "mL/min/kg"},
      {"measurement": "IC50", "setting": "human TrkA; [4]", "result": "< 100", "unit": "nM"}
    ]},
    {"smiles": "COCC[C@@H]1C[C@@H](NC(=O)Nc2c(C)c(-c3cnc4c(c3)nnn4C)nn2-c2ccccc2)[C@H](c2ccnc(F)c2)O1", "note": "[Compound I-275]", "values": [
      {"measurement": "clearance", "setting": "[1]", "result": 3.73, "unit": "mL/min/kg"},
      {"measurement": "IC50", "setting": "human TrkA; [3]", "result": 3, "unit": "nM"}
    ]},
    {"smiles": "COCC[C@@H]1C[C@@H](NC(=O)Nc2c(C)c(-c3cnc(NC4CC4)nc3)nn2-c2ccccc2)[C@H](c2ccnc(F)c2)O1", "note": "[Compound I-293]", "values": [
      {"measurement": "IC50", "setting": "human TrkA; [5]", "result": "< 100", "unit": "nM"}
    ]},
    {"smiles": "COCCN1C[C@@H](NC(=O)Nc2c(C)c(-c3cccnc3)nn2-c2ccccc2)[C@H](c2ccc(F)c(F)c2)O1", "note": "[Compound I-449]", "values": [
      {"measurement": "IC50", "setting": "human TrkA; [6]", "result": "< 100", "unit": "nM"}
    ]},
    {"smiles": "COCCN1C[C@@H](NC(=O)Nc2c(C)c(-c3cnc(N4CCN(C(=O)OCc5ccccc5)CC4)nc3)nn2-c2ccccc2)[C@H](c2ccc(F)c(F)c2)O1", "note": "[Compound I-475]", "values": [
      {"measurement": "IC50", "setting": "human TrkA; [6]", "result": "< 100", "unit": "nM"}
    ]},
    {"smiles": "COCCN1C[C@@H](NC(=O)Nc2c(C)c(-c3cnc4c(cnn4C)c3)nn2-c2ccc(F)cc2)[C@H](c2ccc(F)c(F)c2)O1", "note": "(racemic) [Compound I-174]", "values": [
      {"measurement": "IC50", "setting": "human TrkA; [4]", "result": "< 100", "unit": "nM"}
    ]},
    {"smiles": "COCCN1C[C@@H](NC(=O)Nc2c(C)c(-c3cncc(N=S(C)(C)=O)c3)nn2-c2ccccc2)[C@H](c2ccc(F)c(F)c2)O1", "note": "(racemic) [Compound I-85]", "values": [
      {"measurement": "IC50", "setting": "human TrkA; [4]", "result": "< 100", "unit": "nM"}
    ]},
    {"smiles": "COCCN1C[C@@H](NC(=O)Nc2c(C)c(-c3cnc(N4CCN(C(=O)OCc5ccccc5)CC4)nc3)nn2-c2ccccc2)[C@H](c2ccnc(F)c2)O1", "note": "(racemic) [Compound I-371]", "values": [
      {"measurement": "IC50", "setting": "human TrkA; [6]", "result": "< 100", "unit": "nM"}
    ]},
    {"smiles": "COCCN1C[C@@H](NC(=O)Nc2c(C)c(-c3cnc(OC)c(C(=O)NOCC(C)(C)O)c3)nn2-c2ccccc2)[C@H](c2cnc(F)c(F)c2)O1", "note": "(racemic) [Compound I-318]", "values": [
      {"measurement": "IC50", "setting": "human TrkA; [5]", "result": "< 100", "unit": "nM"}
    ]},
    {"smiles": "COCCN1C[C@@H](NC(=O)Nc2c(C)c(-c3cnc4c(c3)[nH]c(=O)n4C)nn2-c2ccccc2)[C@H](c2ccnc(F)c2)O1", "note": "(racemic) [Compound I-208]", "values": [
      {"measurement": "IC50", "setting": "human TrkA; [5]", "result": "< 100", "unit": "nM"}
    ]},
    {"smiles": "COCCN1C[C@@H](NC(=O)Nc2c(C)c(-c3cnc4c(c3)CN(C)C4=O)nn2-c2ccccc2)[C@H](c2ccc(F)cc2)O1", "note": "[Compound I-411]", "values": [
      {"measurement": "IC50", "setting": "human TrkA; [6]", "result": "< 100", "unit": "nM"}
    ]},
    {"smiles": "COCCN1C[C@@H](NC(=O)Nc2c(C)c(-c3ccc4nccn4c3)nn2-c2ccccc2)[C@H](c2ccc(F)c(F)c2)O1", "note": "[Compound I-460]", "values": [
      {"measurement": "IC50", "setting": "human TrkA; [6]", "result": "< 100", "unit": "nM"}
    ]},
    {"smiles": "COCCN1C[C@@H](NC(=O)Nc2c(C)c(-c3cnc4c(c3)NCCO4)nn2-c2ccccc2)[C@H](c2ccnc(F)c2)O1", "note": "(racemic) [Compound I-306]", "values": [
      {"measurement": "IC50", "setting": "human TrkA; [5]", "result": "< 100", "unit": "nM"}
    ]},
    {"smiles": "COCCN1C[C@@H](NC(=O)Nc2c(C)c(OC3CN(C)C3)nn2-c2ccccc2)[C@H](c2ccc(F)c(F)c2)O1", "note": "[Compound I-600]", "values": [
      {"measurement": "IC50", "setting": "human TrkA; Table 157, human TrkA inhibition, read-out: IC50", "result": "< 100", "unit": "nM"}
    ]},
    {"smiles": "COCCN1C[C@@H](NC(=O)Nc2c(C)c(-c3cnc(N4CCOCC4)nc3)nn2-c2ccccc2)[C@H](c2ccnc(F)c2)O1", "note": "(racemic) [Compound I-324]", "values": [
      {"measurement": "IC50", "setting": "human TrkA; [6]", "result": "< 100", "unit": "nM"}
    ]},
    {"smiles": "COCCN1C[C@@H](NC(=O)Nc2c(C)c(-c3cnc4c(c3)[nH]c(=O)n4C)nn2-c2ccccc2)[C@H](c2ccc(F)c(F)c2)O1", "note": "[Compound I-218]", "values": [
      {"measurement": "IC50", "setting": "human TrkA; [5]", "result": "< 100", "unit": "nM"}
    ]}
  ]
}
